Measured values reported in patent US20110262556A1, “SILVER/WATER, SILVER GELS AND SILVER-BASED COMPOSITIONS; AND METHODS FOR MAKING AND USING THE SAME” (AMERICAN SILVER, LLC, priority 2005, published 2011).

Key:
MRSA 2 = assay: Zone of inhibition, agar well; settings: antibiotic amount (1-200 mcg)
E. coil = assay: Zone of inhibition, agar well; settings: E.coli; antibiotic amount (5-200 mcg)
MRSA 1 = assay: Zone of inhibition, agar well; settings: antibiotic amount (1-200 mcg)
S.typhi = assay: Zone of inhibition, agar well; settings: antibiotic amount (5-200 mcg)
[1] = test system: Pseudomonas aeruginosa MDR clinical isolate (sputum); assay: Antibiotic sensitivity, Kirby Bauer; settings: gram-negative isolate Pseudomonas
[2] = test system: Escherichia coli MDR clinical isolate (stool); assay: Antibiotic sensitivity, Kirby Bauer; settings: for resistance of isolate: gram-negative isolate E. coli
S. aureus ATCC 6538 P = assay: Zone of inhibition, agar well; settings: antibiotic amount (1-200 mcg)

SMILES | zone of inhibition, antibiotics (MRSA 2) | zone of inhibition, antibiotics (E. coil) | zone of inhibition, antibiotics (MRSA 1) | zone of inhibition, antibiotics (S.typhi) | resistance of isolate [1] | resistance of isolate [2] | zone of inhibition, antibiotics (S. aureus ATCC 6538 P) | Zone size (mm) ([2]; E.c, Kirby-Bauer antibiotic disc)
CC1(C)S[C@@H]2[C@H](NC(=O)[C@H](N)c3ccccc3)C(=O)N2[C@H]1C(=O)O [Ampicillin] | 18 mm | 23 mm | 15 mm | 20 mm | resistance | resistance | Clear | 
CO/N=C(\C(=O)N[C@@H]1C(=O)N2C(C(=O)O)=C(COC(C)=O)CS[C@H]12)c1csc(N)n1 [Cefotaxime] | -Clear | 21 mm |  | 22 mm |  |  | 26 mm | 
O=C(O)c1cn(C2CC2)c2cc(N3CCNCC3)c(F)cc2c1=O [Ciprofloxacin] | 14 mm | 29 mm | 14 mm | 25 mm |  |  | 28 mm | 
Cc1onc(-c2ccccc2Cl)c1C(=O)N[C@@H]1C(=O)N2[C@@H]1SC(C)(C)[C@@H]2C(=O)O [Cloxacillin] | 13 mm |  | Clear |  |  |  | Clear | 
CCC[C@@H]1C[C@@H](C(=O)N[C@@H]([C@H]2O[C@H](SC)[C@H](O)[C@@H](O)[C@H]2O)[C@@H](C)O)N(C)C1 [Lincomycin] | Clear |  | Clear |  |  |  | 1Clear | 
CCn1cc(C(=O)O)c(=O)c2cc(F)c(N3CCN(C)CC3)cc21 [Peflofloxacin] | 13 mm | Clear | 11 mm | clear |  |  | 30 mm | 
CCN1CCN(C(=O)N[C@@H](C(=O)N[C@@H]2C(=O)N3[C@@H]2SC(C)(C)[C@@H]3C(=O)O)c2ccccc2)C(=O)C1=O [Piperacillin] |  | 22 mm |  | 16 mm |  |  |  | 
NC[C@H]1O[C@H](O[C@H]2[C@H](O)[C@@H](O[C@H]3O[C@H](CO)[C@@H](O)[C@H](N)[C@H]3O)[C@H](N)C[C@@H]2N)[C@H](O)[C@@H](O)[C@@H]1O [kanamycin] |  |  |  |  |  |  |  | 14
CCn1cc(C(=O)O)c(=O)c2ccc(C)nc21 [nalidixic acid] |  |  |  |  | resistance | resistance |  | 
